Test results taken from patent US12036212B2, “Enhancement of tumor response to chemotherapy by activation of the asmase/ceramide pathway through timed administration of a short-acting anti-angiogenic agent” (Memorial Sloan-Kettering Cancer Center, priority 2014, dated 2024).

How the values were obtained:
ASMase = ASMase activity radioenzymatic assay in BAEC; type: cell-based, bovine
Protocol: (§1) BAEC were established from the intima of bovine aorta as described^1. Stock cultures were grown in 100-mm dishes in Dulbecco's modified Eagle's medium (DMEM) supplemented with glucose (1 g/liter), 5% heat-inactivated calf serum (CS), penicillin (50 units/ml), and streptomycin (50 μg/ml). Purified human recombinant bFGF (1 ng/ml; R&D Systems, Inc., Minneapolis, MN) was added every other day during the exponential growth phase. […] These plateau phase cells were either used for experiments, or further sub-cultured (up to a maximum of 10 times) at a split ratio of 1:8. For sub-culturing, monolayers were dissociated with STV (0.05% trypsin and 0.02% EDTA in PBS) for 2-3 min at 22° C., washed twice in 5% CS-DMEM, and resuspended in DMEM with supplements as above. These mild conditions of trypsinization were sufficient to detach cells but not injure, stimulate, or affect cell function in a detectable way. BAEC were maintained at 37° C. in 10% CO2 humidified incubators.
ASMase activity was quantified by radioenzymatic assay using [^14C-methylcholine]sphingomyelin (Amersham) as substrate as described (Schissel et al. J Biol Chem, 271, 18431-18436, 1996). Cell lysates were incubated with [^14C-methylcholine]-sphingomyelin substrate (0.026 mCi/9.5 nmol) in 250 mM sodium acetate, pH 5.0 supplemented with 0.1% Triton X-100 and 1 mM EDTA or 0.1 mM ZnCl. Reactions were terminated after 1 h with CHCl3:MeOH:1N HCl (100:100:1, v/v/v), and [^14C-methylcholine]phosphocholine product in the aqueous layer of the Folch extract was quantified using a Beckman Packard 2200 CA Tricarb scintillation counter. For detection of ASMase activity in patients, 10 μl of serum was used.
To test the effect of chemotherapy on ASMase signaling and ceramide production, BAEC were treated with paclitaxel (100 nM) and ASMase activity was determined by radioenzymatic assay (Rotolo et al, infra) using [^14C-methylcholine] sphingomyelin (Amersham) as substrate (FIG. 1A). Induction of ASMase activity was observed within 5 minutes after treatment, and the activation continued for 30 minutes. Ceramide generation was monitored using the diacylglycerol kinase assay (Stancevic et al. PLoS ONE 8, e69025, 2013). […] In further support of this, pre-incubation of BAEC with nystatin prior to treatment with chemotherapy inhibits chemotherapy-induced apoptosis (FIG. 3).
(§2) To determine the generality of the results observed, experiments were carried out using an additional endothelial cell line, human coronary artery endothelial cells (HCAEC); experiments were also performed using a different chemotherapeutic agent. […] Next, HCAEC were treated with paclitaxel (100 nM) (data not shown) and etoposide (50 μM) (FIG. 1F), and ceramide generation was evaluated.
To further establish the generality of ASMase activation by various chemotherapeutic agents, BAEC and HCAEC were treated with increasing doses of cisplatin (0.1-50 μM) (data not shown). […] The ASMase/ceramide pathway was activated by chemotherapeutic agents that belong to different classes of chemotherapeutic agents, such as: taxanes, topoisomerase inhibitors, and nucleoside analog metabolic inhibitors. Since such chemotherapy agents are characterized by distinct mechanisms of action in tumor cells, it is surprising that a group of such distinct agents converges on a common molecular (ASMase/ceramide) axis in endothelium. The present confirmation that distinct chemotherapeutic agents activate the ASMase/ceramide pathway permits the present inventors to take into account the results of experiments using single dose radiotherapy, which has been reported to activate the same pathway (Rao, S. S. et al., Axitinib sensitization of high Single Dose Radiotherapy. Radiotherapy and Oncology: Journal of the European Society for Therapeutic Radiology and Oncology 111, 88-93, doi:10.1016/j.radonc.2014.02.010 (2014)).
Gemcitabine was able to activate ASMase in cultured endothelial cells. […]

ceramide [1] = assay: Ceramide generation (diacylglycerol kinase assay) in BAEC; type: cell-based, bovine; settings: paclitaxel 100 nM; for Ceramide generation: etoposide 50 μM, cisplatin 0.1-50 μM
Protocol: as §1
After treatment, cells were placed on ice, washed with cold PBS, and lipids were extracted by addition of scraped cells in methanol to an equal volume of chloroform and 0.6 volume of buffered saline/EDTA solution (135 mM NaCl, 4.5 mM KCl, 1.5 mM CaCl2), 0.5 mM MgCl2, 5.6 mM glucose, 10 mM HEPES pH 7.2, 10 mM EDTA). Lipids in the organic phase extract were dried under N2 and subjected to mild alkaline hydrolysis (0.1 N methanolic KOH for 1 hour at 37° C.) to remove glycerophospholipids. Samples were re-extracted, and the organic phase was dried under N2. Ceramide contained in each sample was resuspended in a 100 μl reaction mixture containing 150 μg of cardiolipin, 280 μM diethylenetriaminepentaacetic acid, 51 mM octyl-β-glucopyranoside (Calbiochem), 50 mM NaCl, 51 mM imidazole, 1 mM EDTA, 12.5 mM MgCl2, 2 mM dithiothreitol, 0.7% glycerol, 70 μM β-mercaptoethanol, 1 mM ATP, 10 μCi of [γ-^32P]ATP, 35 μg/ml Escherichia coli diacylglycerol kinase (Calbiochem) at pH 6.5. After 30 minutes at room temperature, the reaction was stopped by extraction of lipids with 1 ml of chloroform:methanol:1 N HCl (100:100:1), 170 μl of buffered saline solution (BSS) (135 mM NaCl, 1.5 mM CaCl2, 0.5 mM MgCl2, 5.6 mM glucose, and 10 mM HEPES (pH 72), and 30 μl of 100 mM EDTA. The lower organic phase was dried under N2. Ceramide-1 phosphate was resolved by thin-layer chromatography on silica gel 60 plates (Whatman) using a solvent system of chloroform:methanol:acetic acid (65:15:5, v/v/v) and detected by autoradiography, and incorporated ^32P was quantified by liquid scintillation counting. The level of ceramide was determined by comparison with a standard curve generated concomitantly of known amounts of ceramide.
To test the effect of chemotherapy on ASMase signaling and ceramide production, BAEC were treated with paclitaxel (100 nM) and ASMase activity was determined by radioenzymatic assay (Rotolo et al, infra) using [^14C-methylcholine] sphingomyelin (Amersham) as substrate (FIG. 1A). […] Ceramide generation was monitored using the diacylglycerol kinase assay (Stancevic et al. PLoS ONE 8, e69025, 2013). […]
as §2, with “evaluated. […]” for “evaluated.”

ceramide [2] = assay: Ceramide generation in HCAEC; type: cell-based, human; settings: paclitaxel 100 nM, etoposide 50 μM, cisplatin 0.1-50 μM
Protocol: HCAEC were obtained from Clonetics™ Coronary Artery Endothelial Cell Systems (Cambrex Bio Science Inc.). For HCAEC culturing and sub-culturing Clonetics cell system components were used: EBM®-2, Endothelial Cell Basal Medium-2 with addition of Clonetics EGM-2-MV SingleQuots containing growth supplements (Cambrex) (Biomedical Technologies, Inc.). For sub-culturing, monolayers were dissociated with Clonetics® Trypsin/EDTA solution for 2-3 min at 22° C. at a split ratio of 1:4 to expand the cell population for experiments. HCAEC cultures were maintained at 37° C. in 5% CO2 humidified incubators.
After treatment, cells were placed on ice, washed with cold PBS, and lipids were extracted by addition of scraped cells in methanol to an equal volume of chloroform and 0.6 volume of buffered saline/EDTA solution (135 mM NaCl, 4.5 mM KCl, 1.5 mM CaCl2), 0.5 mM MgCl2, 5.6 mM glucose, 10 mM HEPES pH 7.2, 10 mM EDTA). […] After 30 minutes at room temperature, the reaction was stopped by extraction of lipids with 1 ml of chloroform:methanol:1 N HCl (100:100:1), 170 μl of buffered saline solution (BSS) (135 mM NaCl, 1.5 mM CaCl2, 0.5 mM MgCl2, 5.6 mM glucose, and 10 mM HEPES (pH 72), and 30 μl of 100 mM EDTA. The lower organic phase was dried under N2. Ceramide-1 phosphate was resolved by thin-layer chromatography on silica gel 60 plates (Whatman) using a solvent system of chloroform:methanol:acetic acid (65:15:5, v/v/v) and detected by autoradiography, and incorporated ^32P was quantified by liquid scintillation counting. The level of ceramide was determined by comparison with a standard curve generated concomitantly of known amounts of ceramide.
as §2, with “evaluated. […]” for “evaluated.”

Row | Structure (SMILES) | ASMase activation (ASMase; etoposide 50 μM, cisplatin 0.1-50 μM, gemcitabine 100 nM time-course) | Ceramide generation (ceramide [1]) | Ceramide generation (ceramide [2]) | ASMase activation continued for (ASMase; paclitaxel 100 nM) | Induction of ASMase activity, time after treatment (ASMase; paclitaxel 100 nM) | Ceramide generation persisted for (ceramide [1])
1 | N.N.[Cl][Pt][Cl] [cisplatin] | failed to activate ASMase | failed to activate ASMase and result in generation of ceramide | failed to activate ASMase and result in generation of ceramide |  |  | 
2 | CC(=O)O[C@H]1C(=O)[C@@]2(C)[C@H]([C@H](OC(=O)c3ccccc3)[C@]3(O)C[C@H](OC(=O)[C@H](O)[C@@H](NC(=O)c4ccccc4)c4ccccc4)C(C)=C1C3(C)C)[C@]1(OC(C)=O)CO[C@@H]1C[C@@H]2O [paclitaxel] |  | peaked within minutes | leads to the generation of ceramide | 30 min | ≤ 5 min | 30 min
